Experimental findings from patent EP1205473A1, “VESAMICOL PIPERAZINE DERIVATIVES AND DRUGS CONTAINING THE SAME” (DAIICHI RADIOISOTOPE LABORATORIES, LTD., priority 1999, dated 2001) are described below.

Where two headings read alike, the source gives them in different places.

One assay concerns the target T1, vesamicol receptors (Rattus norvegicus, UniProt Q62666).
T1 sequence (Q62666 1-530): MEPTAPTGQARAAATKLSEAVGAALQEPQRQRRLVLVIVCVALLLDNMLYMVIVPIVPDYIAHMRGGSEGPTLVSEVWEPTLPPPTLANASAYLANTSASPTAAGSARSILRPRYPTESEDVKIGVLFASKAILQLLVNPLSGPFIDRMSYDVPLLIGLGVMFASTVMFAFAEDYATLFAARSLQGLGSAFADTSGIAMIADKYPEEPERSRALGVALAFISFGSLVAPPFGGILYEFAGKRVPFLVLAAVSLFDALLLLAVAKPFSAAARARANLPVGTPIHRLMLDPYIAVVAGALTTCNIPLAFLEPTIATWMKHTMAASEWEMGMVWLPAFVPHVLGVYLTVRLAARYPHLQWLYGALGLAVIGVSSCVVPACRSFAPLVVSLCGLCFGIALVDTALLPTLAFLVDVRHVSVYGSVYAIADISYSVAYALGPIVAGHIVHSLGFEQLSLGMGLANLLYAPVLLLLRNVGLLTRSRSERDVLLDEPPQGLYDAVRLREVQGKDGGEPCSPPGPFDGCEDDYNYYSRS
Description: Inhibition experiment: inhibition of binding of radioactive-iodine-labeled DRC140 to P2 fractions. Also on record: Synaptic vesicles were extracted and separated from the brain of a rat; from tissue; host or cells: rat brain without cerebellum: P2, crude synaptic vesicles, purified synaptic vesicles.

In the next assay the target is T2, sigma receptors (Cavia porcellus, UniProt Q60492).
T2 construct: The brain was immediately extracted; The cerebellum was removed from the brain; from tissue; host or cells: guinea pig brain without cerebellum, membrane pellet
Description: Receptor binding test: inhibition of tritium-labeled (+) pentazocine binding to brain homogenate. Also on record: species or system male guinea pig. The settings on record: inhibitive concentration at 50% (IC50), Receptor Sigma-1. As for the experimental part:
Properties relating to binding of the vesamicol piperazine derivatives of the present invention to various receptors were examined as follows. Specifically, ligands which combine with each receptor were incubated together with homogenates prepared as follows.
To measure affinity to sigma receptors, tritium-labeled (+) pentazocine was added to a brain homogenate prepared as follows. The vesamicol piperazine derivatives synthesized in the Examples were added at various concentrations, and the mixture was incubated for two hours at room temperature.
B (%) =((1 0 0 × [U])^(∩))/([ I C50 (])^(∩) (+ [U])^(∩)) [formula] wherein B(%) is the proportion of specific binding in the total binding, n indicates a Hill coefficient, and U is the concentration of unbound ligand.
A male guinea pig was anesthetized with ether and was decapitated. The brain was immediately extracted. The cerebellum was removed from the brain. 10 mM Tris-sucrose buffer solution (0.32 M sucrose + 10 mM Tris-HCl (pH 7.4)) was added in the amount of 10 ml/g of the tissue. The mixture was homogenized by a potter-type homogenizer for 6-10 strokes. The homogenate was centrifuged at 1,000 x g for 10 minutes at 4°C and the supernatant liquid was collected. The resulting pellets were suspended in the Tris-sucrose buffer solution at the concentration of 2 ml/g, followed by centrifugation at 1,000 x g for 10 minutes at 4°C. The supernatant liquids obtained by the two centrifugation at 1,000 x g were combined and centrifuged at 31,000 x g for 15 minutes at 4°C. The resulting pellets were suspended in a 10 mM Tris-HCl buffer solution (pH 7.4) at a concentration of 3 ml/g of tissue and incubated for 30 minutes at 25°C. After incubation, the suspension was centrifuged at 31,000 x g for 15 minutes at 4°C. The pellets obtained were suspended in a 10 mM Tris-HCl buffer solution (pH 7.4) to make a final concentration of 1.53 ml/g of tissue. The suspension was homogenized by a potter-type homogenizer for 5 strokes. The homogenate was stored at -80°C until the start of the experiment.

The mark [1] stands for this setting: inhibitive concentration at 50% (IC50), Receptor Vesamicol.
Setting [2] is: Table 7, P2 fractions, inhibition of radioactive-iodine-labeled DRC140 binding, Binding site names the inhibitor's own site, read-out: IC50 (nM) Average ± S.D.

T2 sequence (Q60492 whole entry): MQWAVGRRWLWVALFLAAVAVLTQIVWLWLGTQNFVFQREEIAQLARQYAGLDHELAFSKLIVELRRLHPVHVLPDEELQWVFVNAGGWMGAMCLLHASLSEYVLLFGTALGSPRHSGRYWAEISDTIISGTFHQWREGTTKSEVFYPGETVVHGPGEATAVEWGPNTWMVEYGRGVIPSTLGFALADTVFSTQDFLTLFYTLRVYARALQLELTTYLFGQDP

As to `CN(C(=O)Cc1ccc(Cl)c(Cl)c1)C(CN1CCCC1)c1cccc(OCC(=O)O)c1` (stereo not shown) [ICI204, 448, reference compound], the IC50 at vesamicol receptors (IC50 (nM) Average ± S.D) is > 5000 nM.
Same read-out and setting: to `OC1CCCCC1N1CCC(c2ccccc2)CC1` (single isomer, unassigned; (+)) [(+)-Vesamicol, 2-(4-phenyl-piperidino)cyclohexanol, reference compound] belongs > 5000 nM.
As to `COc1ccccc1N1CCN([C@@H]2Cc3c(I)cccc3C[C@H]2O)CC1` (racemic) [DRF400, (±)-trans-5-iodo-2-hydroxy-3-[4-[2-methoxyphenyl]piperazinyl]tetralin], the IC50 was 28800 nM at sigma receptors and 1.09 nM on vesamicol receptors (setting [1]).
Consider `CNC(=O)Oc1ccc2c(c1)[C@]1(C)CCN(C)[C@@H]1N2C` [Physostigmine, reference compound], for which, at vesamicol receptors (IC50 (nM) Average ± S.D), the IC50 is > 5000 nM.
For `COc1ccccc1N1CCN(CCCCN2C(=O)c3ccccc3C2=O)CC1` [NAN-190, reference compound], the IC50 at vesamicol receptors (setting [2]) is > 5000 nM.
`CC1=NN=C(c2ccc(N)cc2)c2cc3c(cc2C1)OCO3` [GYKI52466, reference compound]: the IC50 at vesamicol receptors (IC50 (nM) Average ± S.D) is > 5000 nM.
With `COC(=O)[C@H]1[C@H]2C[C@@H]3c4[nH]c5cc(OC)ccc5c4CCN3C[C@H]2C[C@@H](OC(=O)c2cc(OC)c(OC)c(OC)c2)[C@@H]1OC` [Reserpine, reference compound], on vesamicol receptors (setting [2]), the IC50 was > 5000 nM.
Take “5-iodobenzovesamicol [(+)-IBVM, reference compound]”: at vesamicol receptors (read-out: inhibitive concentration at 50% (IC50), Receptor Vesamicol, Table 9, high purity derivatives (HPLC purified), I-125 labeled DRC140, P2 fractions, 3 hours at 37°C, unit inferred), the IC50 was determined as 0.5 nM.
Regarding `Nc1ccccc1N1CCN([C@@H]2Cc3c(I)cccc3C[C@H]2O)CC1` (single isomer, unassigned) [DRF419, (-)-trans-5-iodo-2-hydroxy-3-[4-[2-aminophenyl]piperazinyl]tetralin], the IC50 stood at 4710 nM at sigma receptors and 0.3 nM at vesamicol receptors (setting [1]).
Take `Cc1ccccc1N1CCN([C@@H]2Cc3c(I)cccc3C[C@H]2O)CC1` (single isomer, unassigned) [DRE341, (+)-trans-5-iodo-2-hydroxy-3-[4-[2-methylphenyl]piperazinyl]tetralin]: the IC50 on vesamicol receptors (setting [1]) stood at 1.96 nM.
`Oc1ccccc1N1CCN([C@@H]2Cc3c(I)cccc3C[C@H]2O)CC1` (racemic) [DRF403, (±)-trans-5-iodo-2-hydroxy-3-[4-[2-hydroxyphenyl]piperazinyl]tetralin]: the values for the IC50 on sigma receptors and on vesamicol receptors (setting [1]) were 3030 nM and 2.42 nM, respectively.
Turning to `Nc1ccccc1N1CCN([C@@H]2Cc3cc(I)ccc3C[C@H]2O)CC1` (racemic) [DRG446, (±)-trans-6-iodo-2-hydroxy-3-[4-[2-aminophenyl]piperazinyl]tetralin], the IC50 on sigma receptors came out at 544 nM; on vesamicol receptors (setting [1]) it was 0.38 nM.
Turning to `COc1ccccc1N1CCN(CCCNc2c(C)c(=O)n(C)c(=O)n2C)CC1` [5-Methylurapidil, reference compound], on vesamicol receptors (IC50 (nM) Average ± S.D), the IC50 was > 5000 nM.
Regarding `CC(=O)Nc1ccccc1N1CCN([C@@H]2Cc3c(I)cccc3C[C@H]2O)CC1` (racemic) [DRF401, (±)-trans-5-iodo-2-hydroxy-3-[4-[N-acetyl-2-aminophenyl]-piperazinyl]tetralin], the IC50 on vesamicol receptors (setting [1]) worked out at 0.89 nM.
Same read-out and setting: to `Nc1ccccc1N1CCN([C@@H]2Cc3c(I)cccc3C[C@H]2O)CC1` (racemic) [DRF402, (±)-trans-5-iodo-2-hydroxy-3-[4-[2-aminophenyl]piperazinyl]tetralin] belongs 0.63 nM.
